This passage reports logP and IC50 results from ChEMBL document CHEMBL2203233, “Structure-activity relationship exploration of Kv1.3 blockers based on diphenoxylate” (Bioorg Med Chem Lett, 2012).

System in the first data set: not listed separately
Briefly: Lipophilicity, logP of the compound. The data set is classed as physicochemical. Conditions: octanol/water.
Consider `O=c1ccc2c(OCCCCOc3ccccc3)c3ccoc3cc2o1`, for which the logP is 4.03.

The target in a further data set is Potassium voltage-gated channel subfamily A member 3 (Homo sapiens, UniProt P22001). Briefly: Inhibition of Kv1.3 expressed in mouse L929 cells exposed to depolarizing step pulses from -80 mV to +40 mV by whole cell patch clamp method.
Chain of Potassium voltage-gated channel subfamily A member 3 (P22001 whole entry): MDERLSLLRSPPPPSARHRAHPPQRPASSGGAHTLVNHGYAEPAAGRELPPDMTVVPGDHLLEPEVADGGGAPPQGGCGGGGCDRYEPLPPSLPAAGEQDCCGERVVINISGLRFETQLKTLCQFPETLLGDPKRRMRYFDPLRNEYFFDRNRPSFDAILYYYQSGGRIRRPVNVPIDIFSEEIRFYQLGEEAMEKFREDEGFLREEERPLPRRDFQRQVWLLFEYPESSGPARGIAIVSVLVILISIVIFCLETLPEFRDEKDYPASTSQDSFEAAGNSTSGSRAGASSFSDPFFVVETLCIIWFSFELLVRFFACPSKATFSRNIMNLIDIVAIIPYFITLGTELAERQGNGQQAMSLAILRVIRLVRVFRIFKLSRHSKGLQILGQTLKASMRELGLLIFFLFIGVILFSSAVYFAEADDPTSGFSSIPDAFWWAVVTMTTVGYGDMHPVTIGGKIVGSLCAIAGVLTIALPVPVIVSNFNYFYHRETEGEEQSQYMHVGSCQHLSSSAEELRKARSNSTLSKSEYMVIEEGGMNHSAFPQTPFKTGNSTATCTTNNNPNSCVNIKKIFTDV
Details: not given
It is filed as cell-based.
For the compound `COC(=O)C1(c2ccccc2)CCN(CCC(C#N)(c2ccccc2)c2ccccc2)CC1`, the IC50 came out at 2.52 µM.
The same measure, in the same setting: the value for `N#CC(CCN1CCC(c2ccccc2)CC1)(c1ccccc1)c1ccccc1` was 2.61 µM.
Still for that read-out and setting: the value for `CCOC(=O)C1CCN(CCC(C#N)(c2ccccc2)c2ccccc2)CC1` was 230 µM; that for `CCOC(=O)C1(c2ccccc2)CCN(CCC(c2ccccc2)c2ccccc2)CC1` was 0.9 µM; that for `N#CC(CCN1CCCCC1)(c1ccccc1)c1ccccc1` was 20.5 µM.
Turning to `CCOC(=O)C1(c2ccccc2)CCN(CCCc2ccccc2)CC1`, it took 0.8 µM to reach half-maximal inhibition (IC50).
Take `N#CC(CCN1CCN(c2ccccc2)CC1)(c1ccccc1)c1ccccc1`: 1.86 µM corresponded to half-maximal inhibition (IC50).
The same measure, in the same setting: in the case of `N#CC(CCN1CCN(Cc2ccccc2)CC1)(c1ccccc1)c1ccccc1` it was 1.27 µM.
The compound `N#CC(CCN1CC=C(c2ccccc2)CC1)(c1ccccc1)c1ccccc1` gave an IC50 of 4.2 µM.
Same read-out and setting: in the case of `N#CC(CCN1CCC(O)(c2ccccc2)CC1)(c1ccccc1)c1ccccc1` it was 1.7 µM; in that of `N#CC(CCN1CCC(O)CC1)(c1ccccc1)c1ccccc1`, 0.75 µM; in that of `N#CC(CCN1CCCC(O)C1)(c1ccccc1)c1ccccc1` (stereo not given), more than 100 µM.
Take `OC1CCN(CCC(c2ccccc2)c2ccccc2)CC1`: the IC50 turned out to be 75 µM.
Consider `OC1CCN(CCCc2ccccc2)CC1`, for which the IC50 was more than 100 µM.
On the same count and under the same terms, the value for `CC1CCN(CCC(C#N)(c2ccccc2)c2ccccc2)CC1` was 5.8 µM; that for `COC1CCN(CCC(C#N)(c2ccccc2)c2ccccc2)CC1` was more than 100 µM; that for `N#CC(CCN1CCC(N)CC1)(c1ccccc1)c1ccccc1` was more than 100 µM.
Same read-out and setting: the value for `CC(C)(C)OC(=O)NC1CCN(CCC(C#N)(c2ccccc2)c2ccccc2)CC1` was 25 µM; that for `CCOC(=O)C1(c2ccccc2)CCN(CCC(C#N)(c2ccccc2)c2ccccc2)CC1` [DIPHENOXYLATE] was 5 µM.
